The source of these data is patent US12275733B2, “Substituted pyrido[3,4-b]indoles for the treatment of cartilage disorders” (Sanofi, priority 2016, dated 2025).

Each structure is given as a SMILES string.

Usually EC50 stands for the concentration that produces a half-maximal response. A lower EC50 goes with an effect from little substance. In general, Emax refers to the maximal effect, on the per cent scale that the assay sets.

Test [1] has as its system primary human chondrocyte pellet cultures. Kind of test: Chondrogenesis activity assay in primary human chondrocyte pellet cultures (proteoglycan (aggrecan) induction, Blyscan assay). It is filed as cell-based. Conditions: for EC50: 336 h, proteoglycan (aggrecan) induction, primary human chondrocyte pellets, 2 weeks culture; for Emax: Homo sapiens, Chondrocyte, maximum percent proteoglycan (aggrecan) induction relative to the internal reference compound at 10 μM.

The next test concerns ATDC5 cells. Kind of test: Chondrogenesis activity assay in ATDC5 cells (collagen type II induction, immunofluorescence). It is filed as cell-based, mouse. The following applies: Mus musculus; for EC50: collagen type II induction in ATDC5 cells, concentration reaching 50% of maximum induction; for Emax: maximum percent induction of collagen type II relative to internal reference compound at 10 μM, ATDC5 cells. In outline:
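Collagen type II was stained in fixed, permeabilized cells with an Alexa Fluor 488 secondary and measured by high-content fluorescence imaging. ATDC5 cells had 4 days at 37 °C in insulin-supplemented differentiation medium with compound, typically 40 nM–10 μM, 0.1% DMSO. DMSO wells and a 10 μM internal reference compound were used for normalization.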

In test [1], `Clc1cc(-c2cnn(Cc3cccnc3)c2)c2c(c1)c1ccncc1n2CC1CC1` [Example 288, 6-Chloro-9-cyclopropylmethyl-8-(1-pyridin-3-ylmethyl-1H-pyrazol-4-yl)-9H-pyrido[3,4-b]indole] showed an EC50 of 1.2 µM and an Emax above 200%. In the test with ATDC5 cells, this molecule showed an EC50 of 0.52 µM and an Emax above 80%.

On to `FC(F)(F)Cn1c2cnccc2c2cc(Cl)cc(-c3cnn(-c4c(Cl)cccc4Cl)c3)c21` [Example 167, 6-Chloro-8-[1-(2,6-dichloro-phenyl)-1H-pyrazol-4-yl]-9-(2,2,2-trifluoro-ethyl)-9H-pyrido[3,4-b]indole], for which the results for the EC50 (in test [1]; in the test with ATDC5 cells) were 13 µM and above 10 µM, respectively. In addition, the Emax in test [1] was below 40%; in the test with ATDC5 cells, 20 to 50%.

In test [1], `Cc1nccc2c1[nH]c1c(-c3ccc(OCCn4cccn4)cc3)cc(Cl)cc12` [Example 13, 6-Chloro-1-methyl-8-[4-(2-(1H-pyrazol-1-yl)ethoxy)-phenyl]-9H-pyrido[3,4-b]indole] displayed an EC50 of 1.1 µM and an Emax above 200%. In addition, in the test with ATDC5 cells, the EC50 is 0.12 µM and the Emax is above 80%.
